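Five compound concentrations were applied to cells in 96-well plates for 48 hours; endpoints were derived by simple linear interpolation of the resulting dose-response curve. At the GI50, growth is halved. At the TGI there is no net growth.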 Where a SMILES comes first, the peptide text is derived from it. Bridges are numbered along the chain shown (N, C = ends). [ ]: non-standard residue; d: D form. aThr = C[C@H](O)[C@H](N)C(=O)O
Experiments:
Test in all cases: NCI tumour cell line growth inhibition, 48 h; in the data active means GI50 below about 0.43 µM; inactive means the rest
[1] = tested on: A498 renal
[2] = tested on: NCI-H23 lung
[3] = tested on: SK-MEL-5 melanoma
[4] = tested on: CAKI-1 renal
[5] = tested on: OVCAR-3 ovarian
[6] = tested on: BT-549 breast
[7] = tested on: ACHN renal
[8] = tested on: NCI-H522 lung
[9] = tested on: UACC-257 melanoma
[10] = tested on: RPMI-8226 leukemia
[11] = tested on: HOP-62 NSCLC
[12] = tested on: UO-31 renal
[13] = tested on: MDA-MB-231 breast
[14] = tested on: HS 578T breast
[15] = tested on: SNB-19 CNS
[16] = tested on: CCRF-CEM leukemia
[17] = tested on: NCI-H226 lung
[18] = tested on: OVCAR-8 ovarian
[19] = tested on: PC-3 prostate
[20] = tested on: K-562 leukemia
[21] = tested on: A549 NSCLC
[22] = tested on: SK-MEL-2 melanoma
[23] = tested on: SN12C renal
[24] = tested on: MALME-3M melanoma
[25] = tested on: EKVX NSCLC
[26] = tested on: TK-10 renal
[27] = tested on: KM12 colon
[28] = tested on: HT29 colon
[29] = tested on: LOX IMVI melanoma
[30] = tested on: T-47D breast
[31] = tested on: SK-MEL-28 melanoma
[32] = tested on: OVCAR-4 ovarian
[33] = tested on: SF-539 CNS
[34] = tested on: HOP-92 NSCLC
[35] = tested on: MCF7 breast
[36] = tested on: SF-268 CNS
[37] = tested on: UACC-62 melanoma
[38] = tested on: DU-145 prostate
[39] = tested on: MOLT-4 leukemia
[40] = tested on: SF-295 CNS
[41] = tested on: COLO 205 colon
[42] = tested on: NCI-H460 lung
[43] = tested on: OVCAR-5 ovarian
[44] = tested on: HCC-2998 colon
[45] = tested on: MDA-MB-435
[46] = tested on: SK-OV-3 ovarian
[47] = tested on: NCI/ADR-RES ovarian
[48] = tested on: 786-0 renal
[49] = tested on: IGROV1 ovarian
[50] = tested on: SW-620 colon
[51] = tested on: HCT-116 colon
[52] = tested on: U251 CNS
[53] = tested on: HCT-15 colon
[54] = tested on: RXF 393 renal

CC(C)C[C@@H]1NC(=O)[C@@H]2CCCN2C(=O)[C@@H]2CCCN2C(=O)[C@H](CC(C)C)NC(=O)[C@H](CO)NC(=O)[C@H](CCCCN)NC(=O)[C@H]([C@H](C)O)NC(=O)[C@@H]2CSSC[C@@H](NC1=O)C(=O)N[C@@H](Cc1ccccc1)C(=O)N1CCC[C@H]1C(=O)N[C@@H](CC(=O)O)C(=O)NCC(=O)N[C@@H](CCCN=C(N)N)C(=O)N2 (cyclo(C[aThr]KSLPPL[dC]FPDGR); disulfide 1-9)
> 50 µM: TGI [2] | TGI [3] | TGI [4] | TGI [5] | TGI [6] | TGI [7] | TGI [8] | TGI [9] | TGI [10] | TGI [11] | TGI [12] | TGI [13] | TGI [14] | TGI [15] | TGI [16] | TGI [17] | TGI [18] | TGI [19] | TGI [20] | TGI [21] | TGI [22] | TGI [23] | TGI [24] | TGI [25] | TGI [26] | TGI [27] | TGI [28] | TGI [29] | TGI [30] | TGI [31] | TGI [32] | TGI [33] | TGI [34] | TGI [35] | TGI [36] | TGI [37] | TGI [38] | TGI [39] | TGI [40] | TGI [41] | TGI [42] | TGI [43] | TGI [44] | TGI [45] | TGI [46] | TGI [47] | TGI [48] | TGI [49] | TGI [50] | TGI [51] | TGI [52] | TGI [53] | TGI [54]
33.5 µM: TGI [1]
inactive: GI50 [1] 13.2 µM | GI50 [2] > 50 µM | GI50 [3] > 50 µM | GI50 [4] > 50 µM | GI50 [5] > 50 µM | GI50 [6] > 50 µM | GI50 [7] > 50 µM | GI50 [8] > 50 µM | GI50 [9] > 50 µM | GI50 [10] > 50 µM | GI50 [11] > 50 µM | GI50 [12] > 50 µM | GI50 [13] > 50 µM | GI50 [14] > 50 µM | GI50 [15] > 50 µM | GI50 [16] > 50 µM | GI50 [17] > 50 µM | GI50 [18] > 50 µM | GI50 [19] > 50 µM | GI50 [20] > 50 µM | GI50 [21] > 50 µM | GI50 [22] > 50 µM | GI50 [23] > 50 µM | GI50 [24] > 50 µM | GI50 [25] > 50 µM | GI50 [26] > 50 µM | GI50 [27] > 50 µM | GI50 [28] > 50 µM | GI50 [29] > 50 µM | GI50 [30] > 50 µM | GI50 [31] > 50 µM | GI50 [32] > 50 µM | GI50 [33] > 50 µM | GI50 [34] > 50 µM | GI50 [35] > 50 µM | GI50 [36] > 50 µM | GI50 [37] > 50 µM | GI50 [38] > 50 µM | GI50 [39] > 50 µM | GI50 [40] > 50 µM | GI50 [41] > 50 µM | GI50 [42] > 50 µM | GI50 [43] > 50 µM | GI50 [44] > 50 µM | GI50 [45] > 50 µM | GI50 [46] > 50 µM | GI50 [47] > 50 µM | GI50 [48] > 50 µM | GI50 [49] > 46.4 µM | GI50 [50] > 50 µM | GI50 [51] > 50 µM | GI50 [52] > 50 µM | GI50 [53] > 50 µM | GI50 [54] > 50 µM

— PubChem BioAssay (NCI)
